Measured values taken from ChEMBL document CHEMBL1201862, “PubChem BioAssay data set” (2004).
Active and inactive are the calls of the source.

Columns and labels:
[1] = microbe, parasite or virus in culture; type: functional; settings: Mycobacterium tuberculosis
[2] = target: Disintegrin and metalloproteinase domain-containing protein 17 (Homo sapiens, UniProt P78536); assay: exosite inhibitors of ADAM17, dose response, biochemical (AID 743260)
[3] = inhibition of ADAM10 peptide cleavage – biochemical, FRET peptide substrate, recombinant human ADAM10, selectivity assay for ADAM17 exosite inhibitor project, dose response (AID 743259);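 also: ADAM10 enzyme cleaving a FRET peptide substrate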
cells = type: functional, cell-based
[4] = target: Nuclear receptor subfamily 0 group B member 1 (Homo sapiens, UniProt P51843); type: functional, cell-based;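 also: HEK293T cells transfected with SF-1 and DAX-1 plus StAR promoter luciferase reporter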
Chain of Nuclear receptor subfamily 0 group B member 1 (P51843 whole entry): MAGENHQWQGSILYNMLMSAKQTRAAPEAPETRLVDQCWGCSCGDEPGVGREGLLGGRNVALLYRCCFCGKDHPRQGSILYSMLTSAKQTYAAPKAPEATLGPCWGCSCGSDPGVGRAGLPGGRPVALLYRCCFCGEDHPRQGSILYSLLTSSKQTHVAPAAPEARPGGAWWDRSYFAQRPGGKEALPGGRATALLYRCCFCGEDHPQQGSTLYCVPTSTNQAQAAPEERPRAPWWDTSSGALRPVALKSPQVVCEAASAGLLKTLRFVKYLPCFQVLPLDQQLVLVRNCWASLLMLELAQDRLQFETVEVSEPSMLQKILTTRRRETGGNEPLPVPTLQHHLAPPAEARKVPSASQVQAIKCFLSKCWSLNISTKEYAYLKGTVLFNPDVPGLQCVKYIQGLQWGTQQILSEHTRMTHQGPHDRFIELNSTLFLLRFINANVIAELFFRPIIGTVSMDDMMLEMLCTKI

Large T antigen = Large T antigen (Simian virus 40, UniProt P03070); type: functional, Betapolyomavirus macacae;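 also: Confirmatory-stage PubChem screen for compounds that inhibit SV40 T antigen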
Chain of Large T antigen (P03070 whole entry, the tested form may be a part): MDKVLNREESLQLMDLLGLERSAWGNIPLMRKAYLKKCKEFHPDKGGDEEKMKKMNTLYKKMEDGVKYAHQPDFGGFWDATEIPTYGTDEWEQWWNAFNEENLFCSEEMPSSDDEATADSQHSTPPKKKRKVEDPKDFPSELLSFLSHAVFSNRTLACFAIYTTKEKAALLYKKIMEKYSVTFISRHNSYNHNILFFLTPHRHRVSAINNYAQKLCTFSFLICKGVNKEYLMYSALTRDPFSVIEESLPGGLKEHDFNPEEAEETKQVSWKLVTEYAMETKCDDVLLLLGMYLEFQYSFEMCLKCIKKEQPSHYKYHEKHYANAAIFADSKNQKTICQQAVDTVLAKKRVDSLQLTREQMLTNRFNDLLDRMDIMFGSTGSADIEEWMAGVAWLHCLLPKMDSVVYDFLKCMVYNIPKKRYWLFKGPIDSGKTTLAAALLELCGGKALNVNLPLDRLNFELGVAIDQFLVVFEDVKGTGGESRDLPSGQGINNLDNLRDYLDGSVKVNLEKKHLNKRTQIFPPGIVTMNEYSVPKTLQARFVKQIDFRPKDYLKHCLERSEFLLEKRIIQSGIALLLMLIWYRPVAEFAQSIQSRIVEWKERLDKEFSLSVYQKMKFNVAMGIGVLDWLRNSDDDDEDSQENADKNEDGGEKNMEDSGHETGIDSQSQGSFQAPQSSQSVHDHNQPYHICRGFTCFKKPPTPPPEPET

[5] = target: T1, Sentrin-specific protease 1 (Homo sapiens, UniProt Q9P0U3); assay: SENP1 catalytic domain blockers, concentration series – biochemical, kinetic FRET, dose response (AID 651697); type: functional; settings: read-out: IC50_Mean
T1 sequence (Q9P0U3 whole entry): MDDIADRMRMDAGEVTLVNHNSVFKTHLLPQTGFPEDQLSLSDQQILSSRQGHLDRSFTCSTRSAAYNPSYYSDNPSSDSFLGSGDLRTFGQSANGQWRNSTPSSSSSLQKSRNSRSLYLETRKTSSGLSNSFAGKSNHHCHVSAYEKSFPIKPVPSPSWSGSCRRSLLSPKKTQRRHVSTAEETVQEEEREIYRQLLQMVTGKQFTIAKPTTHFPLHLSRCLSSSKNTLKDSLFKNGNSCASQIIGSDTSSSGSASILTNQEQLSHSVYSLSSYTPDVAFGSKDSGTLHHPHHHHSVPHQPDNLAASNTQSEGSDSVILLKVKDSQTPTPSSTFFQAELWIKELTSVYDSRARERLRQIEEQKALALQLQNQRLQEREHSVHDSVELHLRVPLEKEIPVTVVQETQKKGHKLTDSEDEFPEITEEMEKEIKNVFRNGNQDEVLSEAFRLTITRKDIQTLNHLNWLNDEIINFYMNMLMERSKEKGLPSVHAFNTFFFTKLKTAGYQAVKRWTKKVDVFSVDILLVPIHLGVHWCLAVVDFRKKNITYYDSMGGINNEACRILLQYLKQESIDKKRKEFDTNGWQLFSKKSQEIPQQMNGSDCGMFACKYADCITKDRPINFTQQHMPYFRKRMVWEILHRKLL

[6] = target: T1, Sentrin-specific protease 1; assay: Dose response confirmation of small molecule inhibitors of the catalytic domain of the SUMO protease, SENP1 in a FRET assay.; type: functional; settings: read-out: IC50_Mean
[7] = target: T2, Rac GTPase-activating protein 1 (Homo sapiens, UniProt Q9H0H5); assay: blockers of MgcRacGAP-driven Rac1 GTP hydrolysis – biochemical, ADP Hunter fluorescence, primary and confirmatory, confirmation (AID 624330); type: functional
T2 sequence (Q9H0H5 whole entry): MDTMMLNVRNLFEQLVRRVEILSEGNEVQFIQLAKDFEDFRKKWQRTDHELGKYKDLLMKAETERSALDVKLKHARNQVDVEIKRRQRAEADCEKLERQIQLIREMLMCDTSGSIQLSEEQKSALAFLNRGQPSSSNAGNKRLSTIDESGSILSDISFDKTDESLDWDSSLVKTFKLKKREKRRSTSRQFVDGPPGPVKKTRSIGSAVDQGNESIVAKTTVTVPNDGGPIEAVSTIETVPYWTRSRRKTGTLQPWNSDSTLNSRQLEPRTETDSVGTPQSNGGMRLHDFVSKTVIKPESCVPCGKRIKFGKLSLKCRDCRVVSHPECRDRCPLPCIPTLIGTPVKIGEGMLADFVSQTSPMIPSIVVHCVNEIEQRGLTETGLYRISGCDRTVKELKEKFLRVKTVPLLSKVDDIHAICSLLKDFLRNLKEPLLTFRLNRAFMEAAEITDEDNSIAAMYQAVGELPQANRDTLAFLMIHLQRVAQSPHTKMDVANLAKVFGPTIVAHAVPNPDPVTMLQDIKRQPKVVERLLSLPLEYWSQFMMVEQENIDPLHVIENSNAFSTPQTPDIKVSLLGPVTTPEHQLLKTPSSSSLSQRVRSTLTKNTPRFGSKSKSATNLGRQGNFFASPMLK

[8] = target: T3, RNA-binding protein pos-1 (Caenorhabditis elegans, UniProt G5EF15); assay: disruptors of C. elegans POS-1 RNA interaction – biochemical, fluorescence polarization, dose response (AID 1964);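 also: purified POS-1 fused to maltose binding protein made in E. coli; potency of compounds blocking POS-1 binding to fluorescent RNA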
T3 sequence (G5EF15 whole entry): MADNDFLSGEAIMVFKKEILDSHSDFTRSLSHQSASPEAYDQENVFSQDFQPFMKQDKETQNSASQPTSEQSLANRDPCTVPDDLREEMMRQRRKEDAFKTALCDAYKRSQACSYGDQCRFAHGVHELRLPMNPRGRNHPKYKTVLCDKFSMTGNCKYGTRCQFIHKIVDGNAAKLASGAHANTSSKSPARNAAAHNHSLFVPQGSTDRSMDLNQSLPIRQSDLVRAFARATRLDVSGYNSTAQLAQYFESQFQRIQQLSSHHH

[9] = target: T4, Zinc finger protein mex-5 (Caenorhabditis elegans, UniProt Q9XUB2); assay: potency of MEX-5 RNA-binding blockers – biochemical, C. elegans, fluorescence polarization, dose response (AID 1960)
T4 sequence (Q9XUB2 whole entry): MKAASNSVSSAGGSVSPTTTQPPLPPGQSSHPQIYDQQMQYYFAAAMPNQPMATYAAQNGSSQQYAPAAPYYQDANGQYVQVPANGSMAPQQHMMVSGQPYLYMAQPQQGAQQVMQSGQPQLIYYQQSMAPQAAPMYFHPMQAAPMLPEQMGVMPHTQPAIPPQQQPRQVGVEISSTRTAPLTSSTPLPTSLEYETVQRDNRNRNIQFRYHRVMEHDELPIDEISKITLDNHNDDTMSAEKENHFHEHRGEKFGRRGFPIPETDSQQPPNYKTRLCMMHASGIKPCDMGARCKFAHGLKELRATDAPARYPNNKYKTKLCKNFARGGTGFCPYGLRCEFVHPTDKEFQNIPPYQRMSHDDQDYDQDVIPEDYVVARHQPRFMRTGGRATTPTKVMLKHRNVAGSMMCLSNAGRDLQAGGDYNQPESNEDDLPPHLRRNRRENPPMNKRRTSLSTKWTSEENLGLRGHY

[10] = target: Intestinal-type alkaline phosphatase (Mus musculus, UniProt P24822); assay: PubChem AID 488785; type: functional
Chain of Intestinal-type alkaline phosphatase (Mus musculus, UniProt P24822) (P24822 whole entry): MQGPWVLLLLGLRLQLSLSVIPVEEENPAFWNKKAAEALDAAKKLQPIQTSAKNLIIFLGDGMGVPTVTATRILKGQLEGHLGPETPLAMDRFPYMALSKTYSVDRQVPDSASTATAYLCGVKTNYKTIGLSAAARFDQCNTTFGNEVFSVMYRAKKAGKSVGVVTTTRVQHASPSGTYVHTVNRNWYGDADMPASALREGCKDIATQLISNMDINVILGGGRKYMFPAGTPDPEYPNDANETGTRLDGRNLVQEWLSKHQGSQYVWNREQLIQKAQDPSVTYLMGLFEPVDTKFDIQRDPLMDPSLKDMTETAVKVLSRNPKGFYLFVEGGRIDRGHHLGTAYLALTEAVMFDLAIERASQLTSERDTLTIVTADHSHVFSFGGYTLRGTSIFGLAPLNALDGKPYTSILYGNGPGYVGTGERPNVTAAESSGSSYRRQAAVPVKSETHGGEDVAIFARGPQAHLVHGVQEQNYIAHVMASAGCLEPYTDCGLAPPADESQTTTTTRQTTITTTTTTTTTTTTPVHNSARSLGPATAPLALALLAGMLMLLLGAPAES

[11] = target: T5, Alkaline phosphatase, tissue-nonspecific isozyme (Homo sapiens, UniProt P05186); assay: TNAP enzyme inhibition by screening hits, dose response, selectivity assay for mouse IAP inhibitor project, biochemical, human TNAP, uHTS hits (AID 488906); type: functional
T5 sequence (P05186 whole entry): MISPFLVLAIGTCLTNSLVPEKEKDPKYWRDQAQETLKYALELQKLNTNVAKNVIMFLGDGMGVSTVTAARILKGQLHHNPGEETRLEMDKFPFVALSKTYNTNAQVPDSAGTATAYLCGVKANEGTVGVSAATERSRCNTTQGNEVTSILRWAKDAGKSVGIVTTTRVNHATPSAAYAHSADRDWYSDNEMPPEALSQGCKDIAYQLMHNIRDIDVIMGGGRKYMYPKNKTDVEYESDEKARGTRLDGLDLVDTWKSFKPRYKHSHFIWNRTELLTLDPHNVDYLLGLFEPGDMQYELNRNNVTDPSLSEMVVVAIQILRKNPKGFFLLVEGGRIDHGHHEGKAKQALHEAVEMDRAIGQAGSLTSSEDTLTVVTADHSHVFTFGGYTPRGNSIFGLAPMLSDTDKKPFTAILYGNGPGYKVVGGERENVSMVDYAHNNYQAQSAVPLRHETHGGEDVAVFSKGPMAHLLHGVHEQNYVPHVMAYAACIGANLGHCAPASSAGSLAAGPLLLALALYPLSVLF

[12] = target: Intestinal-type alkaline phosphatase (Homo sapiens, UniProt P09923); assay: inhibition of human intestinal alkaline phosphatase – biochemical, dose response (AID 488876); type: functional
[13] = target: T6, Histone-lysine N-methyltransferase NSD2 (Homo sapiens, UniProt O96028); type: biochemical
T6 sequence (O96028 whole entry): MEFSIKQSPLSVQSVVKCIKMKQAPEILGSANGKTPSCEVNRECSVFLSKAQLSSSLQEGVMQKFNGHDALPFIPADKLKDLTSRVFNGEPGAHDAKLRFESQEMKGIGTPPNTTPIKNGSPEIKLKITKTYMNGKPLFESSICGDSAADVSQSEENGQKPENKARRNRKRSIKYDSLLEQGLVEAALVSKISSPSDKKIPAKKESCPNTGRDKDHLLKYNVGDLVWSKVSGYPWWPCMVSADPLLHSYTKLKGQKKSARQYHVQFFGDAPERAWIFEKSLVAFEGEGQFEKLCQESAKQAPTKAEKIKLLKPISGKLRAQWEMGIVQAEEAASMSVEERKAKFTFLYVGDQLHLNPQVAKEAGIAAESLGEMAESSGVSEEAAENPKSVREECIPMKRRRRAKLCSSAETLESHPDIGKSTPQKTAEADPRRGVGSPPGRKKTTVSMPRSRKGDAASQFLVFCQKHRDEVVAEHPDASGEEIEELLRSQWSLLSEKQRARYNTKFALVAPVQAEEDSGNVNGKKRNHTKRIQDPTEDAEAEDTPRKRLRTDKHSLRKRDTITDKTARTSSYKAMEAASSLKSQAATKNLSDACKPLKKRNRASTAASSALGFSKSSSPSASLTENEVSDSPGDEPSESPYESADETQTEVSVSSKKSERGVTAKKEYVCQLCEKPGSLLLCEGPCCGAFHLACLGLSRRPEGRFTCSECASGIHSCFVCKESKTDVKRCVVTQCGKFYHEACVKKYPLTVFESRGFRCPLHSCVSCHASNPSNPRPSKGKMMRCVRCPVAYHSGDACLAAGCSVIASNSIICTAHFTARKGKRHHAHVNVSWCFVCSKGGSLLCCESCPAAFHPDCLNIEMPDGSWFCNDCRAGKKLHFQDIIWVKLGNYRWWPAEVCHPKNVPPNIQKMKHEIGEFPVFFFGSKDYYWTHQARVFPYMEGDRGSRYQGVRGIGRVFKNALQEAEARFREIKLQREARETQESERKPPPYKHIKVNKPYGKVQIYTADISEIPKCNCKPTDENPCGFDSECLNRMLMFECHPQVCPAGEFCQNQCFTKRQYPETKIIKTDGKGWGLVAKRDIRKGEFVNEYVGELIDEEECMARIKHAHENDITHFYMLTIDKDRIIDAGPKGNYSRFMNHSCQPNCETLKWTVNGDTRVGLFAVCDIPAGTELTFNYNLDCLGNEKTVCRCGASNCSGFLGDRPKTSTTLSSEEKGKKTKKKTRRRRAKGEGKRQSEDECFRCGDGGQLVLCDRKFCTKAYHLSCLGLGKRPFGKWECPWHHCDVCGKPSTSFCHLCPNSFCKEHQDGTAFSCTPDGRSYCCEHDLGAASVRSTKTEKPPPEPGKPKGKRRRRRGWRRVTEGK

[14] = target: 1-phosphatidylinositol 4,5-bisphosphate phosphodiesterase gamma-1 (Homo sapiens, UniProt P19174); assay: Counterscreen for inhibitors of phospholipase C isozymes (PLC-B3): Fluorescence-based biochemical high throughput dose response assay to identify inhibitors of phospholipase C isozymes (PLC-gamma1).
Chain of 1-phosphatidylinositol 4,5-bisphosphate phosphodiesterase gamma-1 (P19174 whole entry): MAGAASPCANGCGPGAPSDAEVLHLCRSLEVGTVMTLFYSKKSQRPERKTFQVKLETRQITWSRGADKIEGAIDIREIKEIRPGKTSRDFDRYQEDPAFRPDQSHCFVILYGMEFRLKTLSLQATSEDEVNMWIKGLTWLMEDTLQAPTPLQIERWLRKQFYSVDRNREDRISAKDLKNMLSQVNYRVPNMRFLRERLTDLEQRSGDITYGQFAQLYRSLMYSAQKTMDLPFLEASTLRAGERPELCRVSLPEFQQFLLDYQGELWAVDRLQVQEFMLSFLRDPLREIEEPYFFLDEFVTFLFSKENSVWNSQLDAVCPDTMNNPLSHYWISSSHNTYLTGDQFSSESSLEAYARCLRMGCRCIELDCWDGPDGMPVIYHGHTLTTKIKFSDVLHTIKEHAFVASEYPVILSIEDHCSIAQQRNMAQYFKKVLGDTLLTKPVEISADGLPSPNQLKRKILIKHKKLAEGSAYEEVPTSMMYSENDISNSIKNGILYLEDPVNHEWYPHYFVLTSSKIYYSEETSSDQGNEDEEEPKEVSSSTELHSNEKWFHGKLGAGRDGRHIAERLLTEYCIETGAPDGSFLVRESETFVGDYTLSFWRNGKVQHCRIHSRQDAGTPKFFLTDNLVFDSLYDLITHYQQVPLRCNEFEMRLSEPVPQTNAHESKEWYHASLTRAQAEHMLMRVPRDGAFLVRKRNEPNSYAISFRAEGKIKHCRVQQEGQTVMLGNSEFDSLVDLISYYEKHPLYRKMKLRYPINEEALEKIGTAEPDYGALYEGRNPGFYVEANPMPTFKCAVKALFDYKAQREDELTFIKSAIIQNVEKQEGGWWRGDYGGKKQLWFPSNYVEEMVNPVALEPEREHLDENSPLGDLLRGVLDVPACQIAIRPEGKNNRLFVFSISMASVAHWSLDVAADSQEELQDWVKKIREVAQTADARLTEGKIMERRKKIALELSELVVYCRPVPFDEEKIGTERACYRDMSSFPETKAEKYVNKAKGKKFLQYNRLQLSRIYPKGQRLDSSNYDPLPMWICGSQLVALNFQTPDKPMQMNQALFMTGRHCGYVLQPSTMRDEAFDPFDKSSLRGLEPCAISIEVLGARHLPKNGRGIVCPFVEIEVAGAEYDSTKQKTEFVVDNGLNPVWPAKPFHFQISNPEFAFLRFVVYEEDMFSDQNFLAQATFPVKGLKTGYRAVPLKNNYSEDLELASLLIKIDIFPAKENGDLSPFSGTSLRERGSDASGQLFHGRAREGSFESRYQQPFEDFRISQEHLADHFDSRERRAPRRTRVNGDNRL

[15] = target: 1-phosphatidylinositol 4,5-bisphosphate phosphodiesterase beta-3 (Homo sapiens, UniProt Q01970); assay: Fluorescence-based biochemical high throughput dose response assay to identify inhibitors of phospholipase C isozymes (PLC-B3).
Chain of 1-phosphatidylinositol 4,5-bisphosphate phosphodiesterase beta-3 (Q01970 whole entry, the tested form may be a part): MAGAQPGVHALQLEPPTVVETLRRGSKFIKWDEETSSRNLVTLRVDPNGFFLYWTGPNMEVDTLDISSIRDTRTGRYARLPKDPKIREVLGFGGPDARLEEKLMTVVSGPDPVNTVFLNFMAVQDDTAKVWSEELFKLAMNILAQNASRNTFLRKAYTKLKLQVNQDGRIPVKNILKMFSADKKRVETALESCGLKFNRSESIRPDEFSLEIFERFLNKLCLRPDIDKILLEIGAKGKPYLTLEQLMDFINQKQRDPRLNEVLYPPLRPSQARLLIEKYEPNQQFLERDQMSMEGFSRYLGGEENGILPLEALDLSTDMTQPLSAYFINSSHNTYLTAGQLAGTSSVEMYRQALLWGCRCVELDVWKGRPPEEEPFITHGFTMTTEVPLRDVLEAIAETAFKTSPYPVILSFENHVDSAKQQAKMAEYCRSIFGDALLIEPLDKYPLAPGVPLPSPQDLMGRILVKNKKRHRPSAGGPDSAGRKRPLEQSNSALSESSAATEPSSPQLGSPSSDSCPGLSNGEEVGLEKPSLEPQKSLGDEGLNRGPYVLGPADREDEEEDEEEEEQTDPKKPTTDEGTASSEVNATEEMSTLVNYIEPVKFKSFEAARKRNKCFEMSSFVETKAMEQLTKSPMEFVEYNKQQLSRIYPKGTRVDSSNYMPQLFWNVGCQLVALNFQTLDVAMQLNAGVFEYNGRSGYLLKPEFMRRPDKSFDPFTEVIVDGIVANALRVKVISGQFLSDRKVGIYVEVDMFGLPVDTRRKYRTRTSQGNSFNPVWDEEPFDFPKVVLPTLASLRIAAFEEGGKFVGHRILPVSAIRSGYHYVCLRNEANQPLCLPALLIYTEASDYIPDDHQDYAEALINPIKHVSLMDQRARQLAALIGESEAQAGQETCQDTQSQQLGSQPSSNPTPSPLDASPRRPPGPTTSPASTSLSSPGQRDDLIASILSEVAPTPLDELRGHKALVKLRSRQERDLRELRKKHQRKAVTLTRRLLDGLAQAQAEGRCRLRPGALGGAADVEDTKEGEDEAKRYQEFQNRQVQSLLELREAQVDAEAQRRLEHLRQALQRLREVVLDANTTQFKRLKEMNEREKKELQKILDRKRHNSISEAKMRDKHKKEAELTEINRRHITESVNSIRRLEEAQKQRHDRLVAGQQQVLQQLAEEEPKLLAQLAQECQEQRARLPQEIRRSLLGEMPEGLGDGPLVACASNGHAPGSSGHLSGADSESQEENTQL

[16] = blockers of HIV-1 envelope-mediated cell-cell fusion – cherry-pick, dose response (AID 652057); type: functional, cell-based
[17] = viability loss in CEM21 cells – cell-based, CellTiter-Glo luminescence, cherry-picked, cytotoxicity control for viral fusion inhibitor project, dose response (AID 652042); type: functional;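 also: potency for signal decrease meaning cytotoxicity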
[18] = blockers of HIV-1 ZM109 envelope-driven cell-cell fusion – HeLa effector, CEM target cells, luciferase, cherry-pick, dose response (AID 652058); type: functional, cell-based;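 also: luciferase signal from HIV-1 Env mediated cell-cell fusion of effector and target cells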
[19] = off-target signal loss in HeLa-CEM21 co-culture – HeLa F-luc CTL cells, cherry-picked, counter-screen for HIV-1 Env fusion inhibitor project, dose response (AID 652040); type: functional, cell-based;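 also: potency for signal decrease marking cytotoxic or nonspecific inhibition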
[20] = HIV-1 AD8 envelope cell-cell fusion blockers – cherry-pick, dose response (AID 652062); type: functional, cell-based;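 also: luciferase signal from cell-cell fusion driven by HIV-1 clade B AD8 Env; potency is for inhibitors of fusion seen as a drop in luminescence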

Chain of Disintegrin and metalloproteinase domain-containing protein 17 (P78536 whole entry, the tested form may be a part): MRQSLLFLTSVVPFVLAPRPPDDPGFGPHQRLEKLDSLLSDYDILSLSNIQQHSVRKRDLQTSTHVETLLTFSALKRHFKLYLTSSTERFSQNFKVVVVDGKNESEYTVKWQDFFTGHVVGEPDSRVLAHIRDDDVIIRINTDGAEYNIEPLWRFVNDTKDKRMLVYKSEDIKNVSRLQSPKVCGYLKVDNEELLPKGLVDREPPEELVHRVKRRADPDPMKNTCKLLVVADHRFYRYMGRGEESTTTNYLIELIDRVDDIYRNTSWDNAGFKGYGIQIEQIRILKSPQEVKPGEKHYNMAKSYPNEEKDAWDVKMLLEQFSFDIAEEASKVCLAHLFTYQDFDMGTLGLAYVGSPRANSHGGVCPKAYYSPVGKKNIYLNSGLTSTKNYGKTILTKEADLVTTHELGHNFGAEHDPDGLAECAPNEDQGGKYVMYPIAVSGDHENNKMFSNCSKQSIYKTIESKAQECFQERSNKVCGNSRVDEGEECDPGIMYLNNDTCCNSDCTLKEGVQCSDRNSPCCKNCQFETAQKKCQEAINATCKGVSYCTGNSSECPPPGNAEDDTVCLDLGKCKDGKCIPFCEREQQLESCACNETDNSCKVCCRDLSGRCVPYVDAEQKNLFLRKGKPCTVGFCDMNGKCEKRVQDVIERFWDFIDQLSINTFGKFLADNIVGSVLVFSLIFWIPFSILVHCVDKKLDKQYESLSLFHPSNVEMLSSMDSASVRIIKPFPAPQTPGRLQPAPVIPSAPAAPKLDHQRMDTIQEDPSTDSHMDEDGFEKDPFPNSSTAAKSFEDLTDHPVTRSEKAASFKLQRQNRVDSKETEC

Structure (SMILES): O=C(Nc1ccccc1)C1=C[C@@H](C2CCCCC2)C[C@@H](OCc2ccc(CO)cc2)O1
- CC50 [1]: > 40 µM (active)
- IC50 [2]: > 69.5 µM (inactive)
- IC50 [3]: 21.8 µM (inactive)

Structure (SMILES): COc1ccc(C(=O)CSc2nccn2C)c(OC)c1
- IC50 (cells): > 67.5 µM (inactive)
- IC50 [4]: > 67.5 µM (inactive)

Structure (SMILES): COc1ccccc1NC(CC(=O)c1ccccc1)C(=O)OCC(=O)c1ccc(Br)cc1 (centres undefined)
- IC50 (cells): > 67.5 µM (inactive)
- IC50 [4]: > 0.278 µM (active)

Structure (SMILES): CCOc1cc(/C=C2\SC(=O)N=C2N)ccc1O
- IC50 (Large T antigen): 4.73 µM (active)
- IC50 [5]: 10.9 µM (active)
- IC50 [6]: 18.2 µM (active)
- IC50 [7]: 13 µM (active)

Structure (SMILES): CC(OC(=O)CCCCCN=C1NS(=O)(=O)c2ccccc21)C(=O)Nc1cc(Cl)cc(Cl)c1 (centres undefined)
- IC50 [2]: > 69.5 µM (inactive)

Structure (SMILES): CC(OC(=O)CCCCCNC1=NS(=O)(=O)c2ccccc21)C(=O)Nc1cc(Cl)cc(Cl)c1 (centres undefined)
- IC50 [3]: 50 µM (inactive)

Structure (SMILES): O=C(/C=C/c1ccco1)NC(=S)Nc1ccc(C(=O)O)cc1
- EC50 [8]: 8.75 µM (active)
- EC50 [9]: 12.8 µM (active)
- IC50 [10]: 2.97 µM (active)
- IC50 [11]: 45 µM (active)
- IC50 [12]: 21.8 µM (active)
- IC50 [7]: 147 µM (active)
- AC50 [13]: 13 µM (active)
- IC50 [14]: > 122 µM (inactive)
- IC50 [15]: > 122 µM (inactive)

Structure (SMILES): O=[N+]([O-])c1ccc(C=NNc2ccccc2)cc1
- IC50 [5]: 21.5 µM (inactive)
- IC50 [6]: 7.2 µM (active)

Structure (SMILES): CC1(C)Cc2ccccc2C(/C(=N\Nc2cccc(Cl)c2)C(N)=O)=N1
- AC50 [16]: 2.68 µM (active)
- AC50 [17]: 49.5 µM (active)
- AC50 [18]: 2.69 µM (active)
- AC50 [19]: 35.5 µM (active)
- AC50 [20]: 8.02 µM (active)
